{"source": "patent US8952024B2", "about": "“Herbicidal pyrimidone derivatives” (E I du Pont de Nemours and Company, priority 2009, dated 2015)", "format_in_all_cases": "in vivo", "key": {"[1]": {"test_system": "bermudagrass (Cynodon dactylon)", "test": "Test B pre-/postemergence plant response", "conditions": "for Plant response rating, Bermudagrass: Postemergence", "how_it_was_run": "(§1)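 Greenhouse herbicide screen. Pre- and postemergence (1- to 4-leaf) spray of compound in solvent/surfactant mixture; loam–sand soil for pre, peat/vermiculite medium for post. Visual control rating 0–100 at 13 to 15 days after treatment.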"}, "[2]": {"test_system": "blackgrass (Alopecurus myosuroides)", "test": "Test B pre-/postemergence plant response", "conditions": "for Plant response rating, Blackgrass: Postemergence", "how_it_was_run": "as §1"}, "[3]": {"test_system": "cocklebur (Xanthium strumarium)", "test": "Test B pre-/postemergence plant response", "conditions": "Postemergence", "how_it_was_run": "as §1"}, "[4]": {"test_system": "downy bromegrass (Bromus tectorum)", "test": "Test B pre-/postemergence plant response", "conditions": "for Plant response rating, Bromegrass, Downy: Postemergence", "how_it_was_run": "as §1"}, "[5]": {"test_system": "giant foxtail (Setaria faberii)", "test": "Test B pre-/postemergence plant response", "conditions": "Postemergence", "how_it_was_run": "as §1"}, "[6]": {"test_system": "green foxtail (Setaria viridis)", "test": "Test B pre-/postemergence plant response", "conditions": "Postemergence", "how_it_was_run": "as §1"}, "[7]": {"test_system": "johnsongrass (Sorghum halepense)", "test": "Test B pre-/postemergence plant response", "conditions": "Postemergence", "how_it_was_run": "as §1"}, "[8]": {"test_system": "kochia (Kochia scoparia)", "test": "Test B pre-/postemergence plant response", "conditions": "Postemergence", "how_it_was_run": "as §1"}, "[9]": {"test_system": "morningglory (Ipomoea coccinea)", "test": "Test B pre-/postemergence plant response", "conditions": "Postemergence", "how_it_was_run": "as §1"}, "[10]": {"test_system": "ragweed (common ragweed, Ambrosia elatior)", "test": "Test B pre-/postemergence plant response", "conditions": "Postemergence", "how_it_was_run": "as §1"}, "[11]": {"test_system": "soybean (Glycine max)", "test": "Test B pre-/postemergence plant response", "conditions": "Postemergence", "how_it_was_run": "as §1"}, "[12]": {"test_system": "velvetleaf (Abutilon theophrasti)", "test": "Test B pre-/postemergence plant response", "conditions": "Postemergence", "how_it_was_run": "as §1"}, "[13]": {"test_system": "wheat (Triticum aestivum)", "test": "Test B pre-/postemergence plant response", "conditions": "Postemergence", "how_it_was_run": "as §1"}, "[14]": {"test_system": "wild oat (Avena fatua)", "test": "Test B pre-/postemergence plant response", "conditions": "Postemergence", "how_it_was_run": "as §1"}, "[15]": {"test_system": "yellow nutsedge (Cyperus esculentus)", "test": "Test B pre-/postemergence plant response", "conditions": "Postemergence", "how_it_was_run": "as §1"}, "[16]": {"test_system": "canarygrass (Phalaris minor)", "test": "Test B postemergence plant response", "conditions": "Postemergence", "how_it_was_run": "(§2)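 Plants grown in peat/vermiculite medium were sprayed postemergence at 2–18 cm height (1- to 4-leaf stage). After 13–15 days in the greenhouse, response was rated visually against untreated controls on a 0–100 scale (0 no effect, 100 complete control).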"}, "[17]": {"test_system": "chickweed (Stellaria media)", "test": "Test B postemergence plant response", "conditions": "Postemergence", "how_it_was_run": "as §2"}, "[18]": {"test_system": "windgrass (Apera spica-venti)", "test": "Test B postemergence plant response", "conditions": "Postemergence", "how_it_was_run": "as §2"}, "[19]": {"conditions": "62 g ai/ha, postemergence, 0 is no effect, 100 is complete control, 13 to 15 days"}, "[20]": {"conditions": "31 g ai/ha, 0 to 100 scale (0 no effect, 100 complete control)"}, "[21]": {"conditions": "125 g ai/ha, scale 0 to 100 (0 no effect, 100 complete control)"}, "[22]": {"conditions": "250 g ai/ha, scale 0 to 100 (0 no effect, 100 complete control), 13 to 15 days"}}, "data": [{"smiles": "O=C1CCCC(O)=C1C(=O)c1cnc(C2CC2)n(C2CCCCC2)c1=O", "note": "[Compound 160]", "values": [{"measurement": "Bermudagrass plant response rating (0 to 100 scale)", "setting": "[1]; [19]", "value": 75}, {"measurement": "Plant response rating, Bermudagrass", "setting": "[1]; [20]", "value": 65}, {"measurement": "Plant response rating, Bermudagrass", "setting": "[1]; [21]", "value": 90}, {"measurement": "Plant response rating, Bermudagrass", "setting": "[1]; [22]", "value": 95}, {"measurement": "Blackgrass plant response rating (0 to 100 scale)", "setting": "[2]; [19]", "value": 10}, {"measurement": "Plant response rating, Blackgrass", "setting": "[2]; [20]", "value": 5}, {"measurement": "Plant response rating, Blackgrass", "setting": "[2]; [21]", "value": 20}, {"measurement": "Plant response rating, Blackgrass", "setting": "[2]; [22]", "value": 25}, {"measurement": "Plant response rating, Cocklebur", "setting": "[3]; [20]", "value": 98}, {"measurement": "Plant response rating, Cocklebur", "setting": "[3]; [21]", "value": 100}, {"measurement": "Plant response rating, Cocklebur", "setting": "[3]; [22]", "value": 100}, {"measurement": "Bromegrass, Downy plant response rating (0 to 100 scale)", "setting": "[4]; [19]", "value": 5}, {"measurement": "Plant response rating, Bromegrass, Downy", "setting": "[4]; [20]", "value": 0}, {"measurement": "Plant response rating, Bromegrass, Downy", "setting": "[4]; [21]", "value": 50}, {"measurement": "Plant response rating, Bromegrass, Downy", "setting": "[4]; [22]", "value": 55}, {"measurement": "Plant response rating, Foxtail, Giant", "setting": "[5]; [20]", "value": 70}, {"measurement": "Plant response rating, Foxtail, Giant", "setting": "[5]; [21]", "value": 75}, {"measurement": "Plant response rating, Foxtail, Giant", "setting": "[5]; [22]", "value": 85}, {"measurement": "Plant response rating, Foxtail, Green", "setting": "[6]; [20]", "value": 55}, {"measurement": "Plant response rating, Foxtail, Green", "setting": "[6]; [21]", "value": 70}, {"measurement": "Plant response rating, Foxtail, Green", "setting": "[6]; [22]", "value": 98}, {"measurement": "Plant response rating, Johnsongrass", "setting": "[7]; [20]", "value": 45}, {"measurement": "Plant response rating, Johnsongrass", "setting": "[7]; [21]", "value": 65}, {"measurement": "Plant response rating, Johnsongrass", "setting": "[7]; [22]", "value": 75}, {"measurement": "Plant response rating, Kochia", "setting": "[8]; [20]", "value": 90}, {"measurement": "Plant response rating, Kochia", "setting": "[8]; [21]", "value": 100}, {"measurement": "Plant response rating, Kochia", "setting": "[8]; [22]", "value": 100}, {"measurement": "Plant response rating, Morningglory", "setting": "[9]; [20]", "value": 75}, {"measurement": "Plant response rating, Morningglory", "setting": "[9]; [21]", "value": 100}, {"measurement": "Plant response rating, Morningglory", "setting": "[9]; [22]", "value": 100}, {"measurement": "Plant response rating, Ragweed", "setting": "[10]; [20]", "value": 80}, {"measurement": "Plant response rating, Ragweed", "setting": "[10]; [21]", "value": 98}, {"measurement": "Plant response rating, Ragweed", "setting": "[10]; [22]", "value": 98}, {"measurement": "Plant response rating, Soybean", "setting": "[11]; [20]", "value": 85}, {"measurement": "Plant response rating, Soybean", "setting": "[11]; [21]", "value": 98}, {"measurement": "Plant response rating, Soybean", "setting": "[11]; [22]", "value": 98}, {"measurement": "Plant response rating, Velvetleaf", "setting": "[12]; [20]", "value": 90}, {"measurement": "Plant response rating, Velvetleaf", "setting": "[12]; [21]", "value": 100}, {"measurement": "Plant response rating, Velvetleaf", "setting": "[12]; [22]", "value": 100}, {"measurement": "Plant response rating, Wheat", "setting": "[13]; [20]", "value": 10}, {"measurement": "Plant response rating, Wheat", "setting": "[13]; [21]", "value": 40}, {"measurement": "Plant response rating, Wheat", "setting": "[13]; [22]", "value": 45}, {"measurement": "Plant response rating, Oat, Wild", "setting": "[14]; [20]", "value": 10}, {"measurement": "Plant response rating, Oat, Wild", "setting": "[14]; [21]", "value": 50}, {"measurement": "Plant response rating, Oat, Wild", "setting": "[14]; [22]", "value": 60}, {"measurement": "Plant response rating, Nutsedge, Yellow", "setting": "[15]; [20]", "value": 65}, {"measurement": "Plant response rating, Nutsedge, Yellow", "setting": "[15]; [21]", "value": 80}, {"measurement": "Plant response rating, Nutsedge, Yellow", "setting": "[15]; [22]", "value": 80}, {"measurement": "Plant response rating, Canarygrass", "setting": "[16]; [20]", "value": 5}, {"measurement": "Plant response rating, Canarygrass", "setting": "[16]; [21]", "value": 20}, {"measurement": "Plant response rating, Canarygrass", "setting": "[16]; [22]", "value": 35}, {"measurement": "Plant response rating, Chickweed", "setting": "[17]; [20]", "value": 85}, {"measurement": "Plant response rating, Chickweed", "setting": "[17]; [21]", "value": 95}, {"measurement": "Plant response rating, Chickweed", "setting": "[17]; [22]", "value": 100}, {"measurement": "Plant response rating, Windgrass", "setting": "[18]; [20]", "value": 20}, {"measurement": "Plant response rating, Windgrass", "setting": "[18]; [21]", "value": 60}, {"measurement": "Plant response rating, Windgrass", "setting": "[18]; [22]", "value": 80}]}]}
